Data: ChEMBL document CHEMBL3046263, “Isolation, characterization, antibacterial, antihelminthic, and in silico studies of polyprenol from Kirganelia reticulata Baill” (2013)
In brackets after ≈: the same amount, converted by molar mass.

Experiments:
Type in all cases: functional
Metaphire posthuma [1] = test: Antihelminthic activity against Pheretima posthuma assessed as paralysis time at 200 mg/ml (reference value: 63.33 +/-0.87 min)
Metaphire posthuma [2] = test: Antihelminthic activity against Pheretima posthuma assessed as paralysis time at 150 mg/ml (reference value: 63.33 +/-0.87 min)
Metaphire posthuma [3] = test: Antihelminthic activity against Pheretima posthuma assessed as paralysis time at 100 mg/ml (reference value: 63.33 +/-0.87 min)
Metaphire posthuma [4] = test: Antihelminthic activity against Pheretima posthuma assessed as paralysis time at 50 mg/ml (reference value: 63.33 +/-0.87 min)
Escherichia coli [5] = test: Antibacterial activity against Escherichia coli after 24 hr by microbroth dilution method
Salmonella typhi [6] = test: Antibacterial activity against Salmonella enterica subsp. enterica serovar Typhi assessed after 24 hr by microbroth dilution method
Metaphire posthuma [7] = test: Antihelminthic activity against Pheretima posthuma assessed as death time at 200 mg/ml (reference value: 198.33 +/-2.61 min)
Metaphire posthuma [8] = test: Antihelminthic activity against Pheretima posthuma assessed as death time at 150 mg/ml (reference value: 198.33 +/-2.61 min)
Metaphire posthuma [9] = test: Antihelminthic activity against Pheretima posthuma assessed as death time at 100 mg/ml (reference value: 198.33 +/-2.61 min)
Metaphire posthuma [10] = test: Antihelminthic activity against Pheretima posthuma assessed as death time at 50 mg/ml (reference value: 198.33 +/-2.61 min)
Pseudomonas aeruginosa [11] = test: Antibacterial activity against Pseudomonas aeruginosa after 24 hr by microbroth dilution method
Staphylococcus aureus [12] = test: Antibacterial activity against Staphylococcus aureus after 24 hr by microbroth dilution method
Escherichia coli [13] = test: Antibacterial activity against Escherichia coli assessed as diameter of growth inhibition zone at 100 mg/ml after 24 hr by agar well diffusion method; conditions: read-out: DIZ
Salmonella typhi [14] = test: Antibacterial activity against Salmonella enterica subsp. enterica serovar Typhi assessed as diameter of growth inhibition zone at 100 mg/ml after 24 hr by agar well diffusion method; conditions: read-out: DIZ
Pseudomonas aeruginosa [15] = test: Antibacterial activity against Pseudomonas aeruginosa assessed as diameter of growth inhibition zone at 100 mg/ml after 24 hr by agar well diffusion method; conditions: read-out: DIZ
Staphylococcus aureus [16] = test: Antibacterial activity against Staphylococcus aureus assessed as diameter of growth inhibition zone at 100 mg/ml after 24 hr by agar well diffusion method; conditions: read-out: DIZ

Q: What does the source list for `C/C(=C/CC/C=C/CO)CC/C=C(/C)CC/C=C(\C)CO` [POLYPRENOL]?
A: Time (Metaphire posthuma [1]): 36.17 min; Time (Metaphire posthuma [2]): 39.63 min; Time (Metaphire posthuma [3]): 43.37 min; Time (Metaphire posthuma [4]): 51.57 min; MBC (Escherichia coli [5]): 25 µg/mL (≈ 85.5 µM); MIC (Escherichia coli [5]): 12.5 µg/mL (≈ 42.7 µM); MBC (Salmonella typhi [6]): 12.5 µg/mL (≈ 42.7 µM); MIC (Salmonella typhi [6]): 6.25 µg/mL (≈ 21.4 µM); Time (Metaphire posthuma [7]): 44.47 min; Time (Metaphire posthuma [8]): 48.5 min; Time (Metaphire posthuma [9]): 55.13 min; Time (Metaphire posthuma [10]): 81.7 min; MBC (Pseudomonas aeruginosa [11]): 12.5 µg/mL (≈ 42.7 µM); MIC (Pseudomonas aeruginosa [11]): 6.25 µg/mL (≈ 21.4 µM); MBC (Staphylococcus aureus [12]): 25 µg/mL (≈ 85.5 µM); MIC (Staphylococcus aureus [12]): 12.5 µg/mL (≈ 42.7 µM); zone of inhibition at 100000 µg/mL (Escherichia coli [13]): 5.6 mm; zone of inhibition at 100000 µg/mL (Salmonella typhi [14]): 13.1 mm; zone of inhibition at 100000 µg/mL (Pseudomonas aeruginosa [15]): 14.7 mm; zone of inhibition at 100000 µg/mL (Staphylococcus aureus [16]): 9.1 mm

Q: With `O=C(O)c1cn(C2CC2)c2cc(N3CCNCC3)c(F)cc2c1=O` [CIPROFLOXACIN] as the compound, how does the MBC (Escherichia coli [5]) read?
A: 12.5 µg/mL (≈ 37.7 µM)

Q: What about the MBC (Salmonella typhi [6]) of the same compound?
A: 6.25 µg/mL (≈ 18.9 µM)

Q: What about the MIC (Salmonella typhi [6]) of the same compound?
A: 3.12 µg/mL (≈ 9.43 µM)

Q: What about the MBC (Pseudomonas aeruginosa [11]) of the same compound?
A: 6.25 µg/mL (≈ 18.9 µM)

Q: And the MBC (Staphylococcus aureus [12])?
A: 12.5 µg/mL (≈ 37.7 µM)

Q: And the zone of inhibition at 100000 µg/mL (Escherichia coli [13])?
A: 10.2 mm

Q: And the zone of inhibition at 100000 µg/mL (Salmonella typhi [14])?
A: 29 mm

Q: What about the zone of inhibition at 100000 µg/mL (Pseudomonas aeruginosa [15]) of the same compound?
A: 31.8 mm

Q: What about the zone of inhibition at 100000 µg/mL (Staphylococcus aureus [16]) of the same compound?
A: 18.1 mm

Q: What does the source list for `C1CNCCN1.C1CNCCN1.C1CNCCN1.O.O=C(O)CC(O)(CC(=O)O)C(=O)O.O=C(O)CC(O)(CC(=O)O)C(=O)O` [PIPERAZINE CITRATE]?
A: Time (Metaphire posthuma [4]): 32.44 min; Time (Metaphire posthuma [10]): 40.72 min
